Results taken from US8791132B2, “Compounds and methods for treatment of hypertension” (Medivation Technologies, Inc., priority 2011, dated 2014).
Values joined by “and” are separate entries in the source; they are usually repeats but may differ in a detail not shown here. Identical values can stand only once. Like-named read-outs stand apart in the source and are kept apart here. Values belong to the molecule of their own block, whether it stands above or below them.

Columns and labels:
[1] = target: T1, human recombinant adrenergic α2A receptor (Homo sapiens, UniProt P08913); assay: Radioligand binding, adrenergic α2A ([3H]MK-912); details: for Percentage inhibition of ligand binding, Adrenergic α2A (0.1 μM): repeat datapoints each shown; for Percentage inhibition of ligand binding, Adrenergic α2A (0.1 μM) / Percentage inhibition of ligand binding, Adrenergic α2A: 0.1 µM; for inhibition at 0.1 µM: read-out: Percentage inhibition of ligand binding, Adrenergic α2A
T1 construct: expressed in transfected cells; host or cells: insect Sf9 cells
T1 sequence (P08913 1-465): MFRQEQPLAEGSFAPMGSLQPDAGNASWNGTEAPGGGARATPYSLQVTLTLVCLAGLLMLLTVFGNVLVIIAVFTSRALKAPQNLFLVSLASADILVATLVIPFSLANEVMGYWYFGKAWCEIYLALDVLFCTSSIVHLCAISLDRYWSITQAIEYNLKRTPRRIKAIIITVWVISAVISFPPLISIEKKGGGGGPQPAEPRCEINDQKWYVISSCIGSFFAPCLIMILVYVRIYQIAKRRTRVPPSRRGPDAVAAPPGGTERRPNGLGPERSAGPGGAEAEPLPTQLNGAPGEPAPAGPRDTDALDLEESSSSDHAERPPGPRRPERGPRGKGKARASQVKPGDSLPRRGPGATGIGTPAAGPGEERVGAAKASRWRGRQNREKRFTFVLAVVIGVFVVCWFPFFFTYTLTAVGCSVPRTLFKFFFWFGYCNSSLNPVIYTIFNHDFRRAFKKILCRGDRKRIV
How it was run: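 Receptor expressed in Sf9 cells, in 50 mM Tris-HCl pH 7.4, 12.5 mM MgCl2, 2 mM EDTA; compounds incubated with 1 nM [3H]MK-912 for 60 min at 25 °C.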

[2] = target: T2, rat adrenergic α1B receptor (Rattus norvegicus, UniProt P15823); assay: Radioligand binding, adrenergic α1B ([3H]Prazosin); details: for Percentage inhibition of ligand binding, Adrenergic α1B (0.1 μM) / Percentage inhibition of ligand binding, Adrenergic α1B: 0.1 µM; for inhibition at 0.1 µM: read-out: Percentage inhibition of ligand binding, Adrenergic α1B
T2 construct: rat adrenergic α1B receptor obtained from Wistar Rat liver; from tissue; host or cells: Wistar rat liver
T2 sequence (P15823 1-515): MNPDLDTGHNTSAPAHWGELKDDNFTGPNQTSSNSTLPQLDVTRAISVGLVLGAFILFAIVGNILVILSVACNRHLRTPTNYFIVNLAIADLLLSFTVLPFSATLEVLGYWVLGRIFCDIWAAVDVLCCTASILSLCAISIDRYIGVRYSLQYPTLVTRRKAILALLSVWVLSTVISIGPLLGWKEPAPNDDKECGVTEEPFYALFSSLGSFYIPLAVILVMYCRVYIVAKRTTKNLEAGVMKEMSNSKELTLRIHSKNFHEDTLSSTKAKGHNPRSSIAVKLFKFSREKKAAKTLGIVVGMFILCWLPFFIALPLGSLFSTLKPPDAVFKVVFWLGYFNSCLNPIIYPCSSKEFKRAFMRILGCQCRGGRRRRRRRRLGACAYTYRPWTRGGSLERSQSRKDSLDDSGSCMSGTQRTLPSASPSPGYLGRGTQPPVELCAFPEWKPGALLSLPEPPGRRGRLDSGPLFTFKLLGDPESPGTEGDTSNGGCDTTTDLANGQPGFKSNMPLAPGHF
How it was run: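 Rat α1B receptor from Wistar rat liver was incubated with 0.25 nM [3H]prazosin for 60 min at 25 °C in 50 mM Tris-HCl, pH 7.4, 0.5 mM EDTA. Non-specific binding was defined with 10 μM phentolamine. Bound radioligand was measured by filtration and counting, reported as percent inhibition of specific binding.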

[3] = target: T3, human recombinant adrenergic α2B receptor (Homo sapiens, UniProt P18089); assay: Radioligand binding, adrenergic α2B ([3H]Rauwolscine); details: for Percentage inhibition of ligand binding, Adrenergic α2B (0.03 μM) / Percentage inhibition of ligand binding, Adrenergic α2B: 0.03 µM; for inhibition at 0.03 µM: read-out: Percentage inhibition of ligand binding, Adrenergic α2B
T3 construct: expressed in transfected cells; host or cells: CHO-K1
T3 sequence (P18089 1-450): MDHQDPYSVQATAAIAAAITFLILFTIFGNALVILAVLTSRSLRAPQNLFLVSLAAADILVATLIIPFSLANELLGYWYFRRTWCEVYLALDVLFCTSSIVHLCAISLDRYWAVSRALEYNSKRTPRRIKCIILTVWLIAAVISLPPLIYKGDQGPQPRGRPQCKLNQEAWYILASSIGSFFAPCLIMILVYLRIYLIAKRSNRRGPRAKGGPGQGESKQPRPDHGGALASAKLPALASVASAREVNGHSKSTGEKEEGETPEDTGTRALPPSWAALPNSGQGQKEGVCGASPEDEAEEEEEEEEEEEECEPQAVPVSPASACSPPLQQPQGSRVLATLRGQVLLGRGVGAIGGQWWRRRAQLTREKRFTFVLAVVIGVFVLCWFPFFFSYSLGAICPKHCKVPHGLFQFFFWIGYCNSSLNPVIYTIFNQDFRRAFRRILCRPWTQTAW
How it was run: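 Assay used CHO-K1-expressed human α2B receptor in Tris-HCl pH 7.4 buffer with MgCl2, EDTA and BSA; 60 min incubation at 25 °C.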

[4] = compound at 0.1 μM, [3H]Prazosin, repeat datapoints each shown
[5] = compound at 0.03 μM, [3H]Rauwolscine, repeat datapoints each shown
[6] = compound at 0.1 μM, [3H]MK-912, repeat assays, each datapoint shown
[7] = compound at 0.1 μM, [3H]Prazosin, repeat assays, each datapoint shown
[8] = compound at 0.03 μM, [3H]Rauwolscine, repeat assays, each datapoint shown

Structure (SMILES): COc1cccc2c3c(n(CC(O)c4ccncc4)c12)CCN(C)C3 (stereo not shown) [compound 44, 2-(6-methoxy-2-methyl-3,4-dihydro-1H-pyrido[4,3-b]indol-5(2H)-yl)-1-(pyridin-4-yl)ethanol]
Percentage inhibition of ligand binding, Adrenergic α2A [1, 6]: −1%
Percentage inhibition of ligand binding, Adrenergic α1B [2, 7]: −3%
Percentage inhibition of ligand binding, Adrenergic α2B [3, 8]: 56%

Structure (SMILES): Cc1ccc2c(c1)c1c(n2CC(C)(O)c2ccccn2)CN(C)CC1 (single isomer, unassigned) [16b, 1-(2,6-dimethyl-1,2,3,4-tetrahydro-β-carbolin-9-yl)-2-pyridin-2-yl-propan-2-ol]
Percentage inhibition of ligand binding, Adrenergic α2A [1, 6]: 2%
Percentage inhibition of ligand binding, Adrenergic α1B [2, 7]: 16%
Percentage inhibition of ligand binding, Adrenergic α2B [3, 8]: 2%

Structure (SMILES): CN1CCc2c(c3ccc(C(F)(F)F)cc3n2CC(O)c2ccncc2)C1 (stereo not shown) [compound 65, 2-(2-methyl-7-(trifluoromethyl)-3,4-dihydro-1H-pyrido[4,3-b]indol-5(2H)-yl)-1-(pyridin-4-yl)ethanol]
inhibition at 0.1 µM [1, 6]: -3%
inhibition at 0.1 µM [2, 7]: -13%
inhibition at 0.03 µM [3, 8]: 64%

Structure (SMILES): CC(=O)c1ccc2c(c1)c1c(n2CC(O)c2ccncc2)CCN(C)C1 (single isomer, unassigned) [49b, 1-(2,3,4,5-tetrahydro-5-(2-hydroxy-2-(pyridin-4-yl)ethyl)-2-methyl-1H-pyrido[4,3-b]indol-8-yl)ethanone]
Percentage inhibition of ligand binding, Adrenergic α2A [1, 6]: 6%
Percentage inhibition of ligand binding, Adrenergic α1B [2, 7]: 5%
Percentage inhibition of ligand binding, Adrenergic α2B [3, 8]: 19%

Structure (SMILES): CN1CCc2c(c3cc(C(F)(F)F)ccc3n2CC(O)c2ccncc2)C1 (stereo not shown) [compound 6, 2-(2-methyl-8-(trifluoromethyl)-3,4-dihydro-1H-pyrido[4,3-b]indol-5(2H)-yl)-1-(pyridin-4-yl)ethanol]
inhibition at 0.1 µM [1, 6]: 2%
inhibition at 0.1 µM [2, 7]: 8%
inhibition at 0.03 µM [3, 8]: 62%

Structure (SMILES): Cc1ccc2c(c1)c1c(n2CC(O)c2ccc(C(N)=O)cc2)CCN(C)C1 (stereo not shown) [compound 139, 4-[2-(2,8-dimethyl-1,2,3,4-tetrahydro-pyrido[4,3-b]indol-5-yl)-1-hydroxy-ethyl]-benzamide]
Ki [1]: 390 nM
Percentage inhibition of ligand binding, Adrenergic α2A (0.1 μM) ([1]; compound at 0.1 μM, [3H]MK-912): −2%
Percentage inhibition of ligand binding, Adrenergic α1B (0.1 μM) [2, 4]: 72%
inhibition at 0.03 µM ([2]; read-out: Percentage inhibition of ligand binding, Adrenergic α1B (0.03 μM), compound at 0.03 μM, [3H]Prazosin, repeat datapoints each shown): 46%
Percentage inhibition of ligand binding, Adrenergic α2B (0.03 μM) [3, 5]: 59% and 83%
Ki ([3]; read-out: Ki α2B): 8.12 nM
inhibition at 0.1 µM ([3]; read-out: Percentage inhibition of ligand binding, Adrenergic α2B (0.1 μM), compound at 0.1 μM, [3H]Rauwolscine, repeat datapoints each shown): 87%

Structure (SMILES): Cc1ccc2c(c1)c1c(n2/C=C/c2ccncc2)CCNC1 [compound 79, 8-methyl-5-(2-(pyridin-4-yl)vinyl)-2,3,4,5-tetrahydro-1H-pyrido[4,3-b]indole]
inhibition at 0.1 µM [1, 6]: 19%
inhibition at 0.1 µM [2, 7]: 34%
inhibition at 0.03 µM [3, 8]: 77%

Continued, values first:

Percentage inhibition of ligand binding, Adrenergic α2A (0.1 μM) ([1]; compound at 0.1 μM, [3H]MK-912): 71%
Percentage inhibition of ligand binding, Adrenergic α1B (0.1 μM) [2, 4]: 76%
Percentage inhibition of ligand binding, Adrenergic α2B (0.03 μM) [3, 5]: 36%
Structure (SMILES): CCN1CCc2c(c3cc(C)ccc3n2CC(O)c2ccc(C)cc2)C1 (single isomer, unassigned) [203a]

Percentage inhibition of ligand binding, Adrenergic α2A (0.1 μM) ([1]; compound at 0.1 μM, [3H]MK-912): 24%
Percentage inhibition of ligand binding, Adrenergic α1B (0.1 μM) [2, 4]: 20%
Percentage inhibition of ligand binding, Adrenergic α2B (0.03 μM) [3, 5]: 94%
Structure (SMILES): Cc1ccc2c(c1)c1c(n2CC(CC(O)C(C)(C)C)c2ccncc2)CCN(C)C1 (single isomer, unassigned) [II-227c, 6-(2,8-dimethyl-1,2,3,4-tetrahydro-pyrido[4,3-b]indol-5-yl)-2,2-dimethyl-5-pyridin-4-yl-hexan-3-ol]

inhibition at 0.1 µM ([1]; 0.1 μM compound): 10%
inhibition at 0.1 µM ([2]; 0.1 μM compound): 3%
inhibition at 0.03 µM ([3]; 0.03 μM compound): 21%
Structure (SMILES): CC(O)(Cn1c2c(c3cc(CO)ccc31)CNCC2)c1cccnc1 (stereo not shown) [II-104]

Percentage inhibition of ligand binding, Adrenergic α2A ([1]; 0.1 μM compound): 43%
Percentage inhibition of ligand binding, Adrenergic α1B ([2]; 0.1 μM compound): 76%
Percentage inhibition of ligand binding, Adrenergic α2B ([3]; 0.03 μM compound): 89%
Structure (SMILES): Cc1ccc2c(c1)c1c(n2CC(N)c2ccc(F)cc2)CCN(C)C1 (single isomer, unassigned) [II-11b, 2-(2,8-dimethyl-3,4-dihydro-1H-pyrido[4,3-b]indol-5(2H)-yl)-1-(4-fluorophenyl)ethanamine]
